Data: patent publication US20260325540A1 (priority 2023, published 2026)

Target: HCoV-229E 3CL protease (Human coronavirus 229E, UniProt P0C6U2)
Assay: FRET based protease assay, HCoV-229E 3CL
Format: biochemical
Details: 229E IC50, 6 nM H229E-CoV Chis-3CLpro, 6 μM peptide 1 substrate, 25° C., 1.5 hrs, pH 7.5

Sequence of HCoV-229E 3CL protease (P0C6U2 2966-3267): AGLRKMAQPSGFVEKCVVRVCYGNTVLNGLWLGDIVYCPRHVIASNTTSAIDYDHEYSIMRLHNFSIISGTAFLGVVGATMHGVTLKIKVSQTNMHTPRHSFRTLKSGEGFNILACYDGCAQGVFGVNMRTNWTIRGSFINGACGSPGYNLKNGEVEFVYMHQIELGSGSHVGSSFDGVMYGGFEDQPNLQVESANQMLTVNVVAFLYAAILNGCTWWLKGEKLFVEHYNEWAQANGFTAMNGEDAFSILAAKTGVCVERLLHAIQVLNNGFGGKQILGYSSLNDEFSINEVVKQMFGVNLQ

Row | SMILES | IC50 [nM]
1 | CC(C)(C)C(=O)N[C@H]1CCCC[C@H]2CCNC(=O)[C@H]2C[C@@H](C#N)NC(=O)[C@@H]2[C@@H]3[C@H](CN2C1=O)C3(C)C [Example 69] | < 100
2 | CC(C)(C)C(=O)N[C@H]1CCCC[C@H]2CNC(=O)[C@H]2C[C@@H](C#N)NC(=O)[C@@H]2[C@H]3CCC[C@H]3CN2C1=O [Example 70] | < 100
3 | CC(C)(C)C(=O)N[C@H]1CCCC[C@H]2CNC(=O)[C@H]2C[C@@H](C#N)NC(=O)[C@@H]2CCCCN2C1=O [Example 71] | 1000 to 20000
4 | CC(C)(C)OC(=O)N[C@H]1CCCC[C@H]2CNC(=O)[C@H]2C[C@@H](C#N)NC(=O)[C@@H]2[C@@H]3[C@H](CN2C1=O)C3(C)C [Example 72] | < 100
5 | CC(C)(C)CC(=O)N[C@H]1CCCC[C@H]2CNC(=O)[C@H]2C[C@@H](C#N)NC(=O)[C@@H]2[C@@H]3[C@H](CN2C1=O)C3(C)C [Example 73] | < 100
6 | CC(C)(C)C(=O)N[C@H]1CCCC[C@H]2CNC(=O)[C@H]2C[C@@H](C#N)NC(=O)[C@@H]2CCCN2C1=O [Example 74] | 1000 to 20000
7 | CC1(C)[C@@H]2[C@H]3C(=O)N[C@H](C#N)C[C@@H]4C(=O)NC[C@@H]4CCCC[C@H](NC(=O)OC4CCCC4)C(=O)N3C[C@@H]21 [Example 75] | < 100
8 | CC1(C)[C@@H]2[C@H]3C(=O)N[C@H](C#N)C[C@@H]4C(=O)NC[C@@H]4CCCC[C@H](NC(=O)C4CCC4)C(=O)N3C[C@@H]21 [Example 76] | < 100
9 | CC1(C)[C@@H]2[C@H]3C(=O)N[C@H](C#N)C[C@@H]4C(=O)NC[C@@H]4CCCC[C@H](NC(=O)C4CCCCC4)C(=O)N3C[C@@H]21 [Example 77] | < 100
10 | CN1C(=O)[C@@H](NC(=O)C(C)(C)C)CCCC[C@H]2CNC(=O)[C@H]2C[C@@H](C#N)NC(=O)[C@@H]1CC(C)(C)C [Example 78] | 100 to 1000
11 | CC(C)(C)OC(=O)N[C@H]1CCCC[C@H]2CNC(=O)[C@H]2C[C@@H](C#N)NC(=O)[C@@H]2[C@H]3CCC[C@H]3CN2C1=O [Example 79] | < 100
12 | CC(C)(C)C(=O)N[C@H]1CCCC[C@H]2CNC(=O)[C@H]2C[C@@H](C#N)NC(=O)[C@H](C2CCCC2)NC1=O [Example 80] | 100 to 1000
13 | CC1(C)[C@@H]2[C@H]3C(=O)N[C@H](C#N)C[C@@H]4C(=O)NC[C@@H]4CCCC[C@H](NC(=O)C4CC5(CCC5)C4)C(=O)N3C[C@@H]21 (some centres unmarked) [Example 81] | < 100
14 | CC1(C)[C@@H]2[C@H]3C(=O)N[C@H](C#N)C[C@@H]4C(=O)NC[C@@H]4CCCC[C@H](NC(=O)c4ccc(F)cc4)C(=O)N3C[C@@H]21 [Example 82] | < 100
15 | CC1(C)[C@@H]2[C@H]3C(=O)N[C@H](C#N)C[C@@H]4C(=O)NC[C@@H]4/C=C/CC[C@H](NC(=O)C4CC(F)(F)C4)C(=O)N3C[C@@H]21 [Example 83] | < 100
16 | N#C[C@@H]1C[C@@H]2C(=O)NC[C@@H]2CCCC[C@H](NC(=O)C2CC(F)(F)C2)C(=O)N2C[C@@H]3CCC[C@@H]3[C@H]2C(=O)N1 [Example 84] | < 100
17 | CC1(C)[C@@H]2[C@H]3C(=O)N[C@H](C#N)C[C@@H]4C(=O)NC[C@@H]4CCCC[C@H](NC(=O)C4CCOCC4)C(=O)N3C[C@@H]21 [Example 85] | < 100
18 | CC(C)(C)C(=O)N[C@H]1CC/C=C/[C@H]2CNC(=O)[C@H]2C[C@@H](C#N)NC(=O)[C@@H]2[C@H]3CCC[C@H]3CN2C1=O [Example 86] | < 100
19 | CC1(C)[C@@H]2[C@H]3C(=O)N[C@H](C#N)C[C@@H]4C(=O)NC[C@@H]4CCCC[C@H](NC(=O)C(F)(F)F)C(=O)N3C[C@@H]21 [Example 87] | < 100
20 | N#C[C@@H]1C[C@@H]2C(=O)NC[C@@H]2CCCC[C@H](NC(=O)C(F)(F)F)C(=O)N2C[C@@H]3CCC[C@@H]3[C@H]2C(=O)N1 [Example 88] | < 100
21 | CC1(C)[C@@H]2[C@H]3C(=O)N[C@H](C#N)C[C@@H]4C(=O)NC[C@@H]4CCCC[C@H](NC(=O)CC4CC(F)(F)C4)C(=O)N3C[C@@H]21 [Example 89] | < 100
22 | CC1(C)[C@@H]2[C@H]3C(=O)N[C@H](C#N)C[C@@H]4C(=O)NC[C@@H]4CCCC[C@H](NC(=O)CC4CCCC4)C(=O)N3C[C@@H]21 [Example 90] | < 100
23 | CC1(C)[C@@H]2[C@H]3C(=O)N[C@H](C#N)C[C@@H]4C(=O)NC[C@@H]4CCCC[C@H](NC(=O)c4ccncn4)C(=O)N3C[C@@H]21 [Example 91] | < 100
24 | CC(C)(C)OC(=O)N[C@H]1CC/C=C/[C@H]2CNC(=O)[C@H]2C[C@@H](C#N)NC(=O)[C@@H]2[C@@H]3[C@H](CN2C1=O)C3(C)C [Example 92] | < 100
25 | N#C[C@@H]1C[C@@H]2C(=O)NCC[C@@H]2CCCC[C@H](NC(=O)OC2CCCC2)C(=O)N2C[C@@H]3CCC[C@@H]3[C@H]2C(=O)N1 [Example 93] | < 100
26 | N#C[C@@H]1C[C@@H]2C(=O)NC[C@@H]2CCCC[C@H](NC(=O)OC2CCCC2)C(=O)N2C[C@@H]3CCC[C@@H]3[C@H]2C(=O)N1 [Example 94] | < 100
27 | CC(C)(C)CC(=O)N[C@H]1CCCC[C@H]2CCNC(=O)[C@H]2C[C@@H](C#N)NC(=O)[C@@H]2[C@H]3CCC[C@H]3CN2C1=O [Example 95] | < 100

Row | SMILES | IC50 [nM]
28 | CC(C)(C)OC(=O)N[C@H]1CC/C=C\[C@H]2CCNC(=O)[C@H]2CC(C#N)NC(=O)[C@@H]2[C@H]3CCC[C@H]3CN2C1=O (some centres unmarked) [Example 97] | < 100
29 | CC(C)(C)OC(=O)N[C@H]1CCCC[C@H]2CCNC(=O)C2C[C@@H](C#N)NC(=O)[C@@H]2[C@H]3CCC[C@H]3CN2C1=O (some centres unmarked) [Example 98] | < 100
30 | CC(C)(C)OC(=O)N[C@H]1CC/C=C/[C@H]2CCNC(=O)[C@H]2C[C@@H](C#N)NC(=O)[C@@H]2[C@H]3CCC[C@H]3CN2C1=O [Example 99] | 1000 to 20000
31 | CC(C)(C)OC(=O)N[C@H]1CCC[C@H]2CCNC(=O)[C@H]2C[C@@H](C#N)NC(=O)[C@@H]2[C@H]3CCC[C@H]3CN2C1=O [Example 100] | 100 to 1000
32 | N#C[C@@H]1C[C@@H]2C(=O)NC[C@@H]2/C=C/CC[C@H](NC(=O)C(F)(F)F)C(=O)N2C[C@@H]3CCC[C@@H]3[C@H]2C(=O)N1 [Example 101] | < 100
33 | CC(C)(C)OC(=O)N[C@H]1COCCC[C@H]2CNC(=O)[C@H]2C[C@@H](C#N)NC(=O)[C@@H]2[C@@H]3[C@H](CN2C1=O)C3(C)C [Example 102] | < 100
34 | CC1(C)[C@@H]2[C@H]3C(=O)N[C@H](C#N)C[C@@H]4C(=O)NC[C@@H]4CCCC[C@H](NC(=O)c4ccc(F)cc4F)C(=O)N3C[C@@H]21 [Example 103] | < 100
35 | CC1(C)[C@@H]2[C@H]3C(=O)N[C@H](C#N)C[C@@H]4C(=O)NCC[C@@H]4CCCC[C@H](NC(=O)C(F)(F)F)C(=O)N3C[C@@H]21 [Example 104] | < 100
36 | CC(C)(C)OC(=O)N[C@H]1CCCC[C@H]2CNC(=O)[C@H]2C[C@@H](C#N)NC(=O)[C@@H]2CC3(CC3)CN2C1=O [Example 105] | < 100
37 | CC(C)(C)COC(=O)N[C@H]1CCCC[C@H]2CNC(=O)[C@H]2C[C@@H](C#N)NC(=O)[C@@H]2[C@@H]3[C@H](CN2C1=O)C3(C)C [Example 106] | < 100
38 | CC1(C)[C@@H]2[C@H]3C(=O)N[C@H](C#N)C[C@@H]4C(=O)NC[C@@H]4CCCC[C@H](NC(=O)c4cncnc4)C(=O)N3C[C@@H]21 [Example 107] | < 100
39 | CC1(C)[C@@H]2[C@H]3C(=O)N[C@H](C#N)C[C@@H]4C(=O)NC[C@@H]4/C=C/CC[C@H](NC(=O)C(F)(F)F)C(=O)N3C[C@@H]21 [Example 108] | < 100
40 | Cc1cc(C(=O)N[C@H]2CCCC[C@H]3CNC(=O)[C@H]3C[C@@H](C#N)NC(=O)[C@@H]3[C@@H]4[C@H](CN3C2=O)C4(C)C)on1 [Example 109] | < 100
41 | CC(C)(C)OC(=O)N[C@H]1CCCC[C@H]2CCNC(=O)[C@H]2C[C@@H](C#N)NC(=O)[C@@H]2[C@@H]3[C@H](CN2C1=O)C3(C)C [Example 110] | < 100
42 | CC(C)(C)OC(=O)N[C@H]1CCCC[C@H]2CNC(=O)[C@H]2C[C@@H](C#N)NC(=O)[C@@H]2[C@H]3CC[C@H](CC3)N2C1=O [Example 111] | 100 to 1000
43 | CC(C)(C)OC(=O)N[C@H]1CC/C=C/[C@H]2CNC(=O)[C@H]2C[C@@H](C#N)NC(=O)[C@@H]2[C@H]3CCC[C@H]3CN2C1=O [Example 112] | < 100
44 | Cc1nc(C(=O)N[C@H]2CCCC[C@H]3CNC(=O)[C@H]3C[C@@H](C#N)NC(=O)[C@@H]3[C@@H]4[C@H](CN3C2=O)C4(C)C)cs1 [Example 113] | 100 to 1000
45 | CC(C)(C)OC(=O)N[C@H]1CC/C=C\[C@H]2CCNC(=O)[C@H]2C[C@@H](C#N)NC(=O)[C@@H]2[C@@H]3[C@H](CN2C1=O)C3(C)C [Example 114] | < 100
46 | Cc1nc(C(=O)N[C@H]2CCCC[C@H]3CNC(=O)[C@H]3C[C@@H](C#N)NC(=O)[C@@H]3[C@@H]4[C@H](CN3C2=O)C4(C)C)co1 [Example 115] | < 100
47 | CC1(C)[C@@H]2[C@H]3C(=O)N[C@H](C#N)C[C@@H]4C(=O)NC[C@@H]4CCCC[C@H](NC(=O)c4ccc(F)c(C(F)(F)F)c4)C(=O)N3C[C@@H]21 [Example 116] | < 100
48 | CC1(C)[C@@H]2[C@H]3C(=O)N[C@H](C#N)C[C@@H]4C(=O)NC[C@@H]4CCCC[C@H](NC(=O)C4(C(F)(F)F)CC4)C(=O)N3C[C@@H]21 [Example 117] | < 100
49 | CC1(C(=O)N[C@H]2CCCC[C@H]3CNC(=O)[C@H]3C[C@@H](C#N)NC(=O)[C@@H]3[C@@H]4[C@H](CN3C2=O)C4(C)C)CCC1 [Example 118] | < 100
50 | CC1(C)[C@@H]2[C@H]3C(=O)N[C@H](C#N)C[C@@H]4C(=O)NC[C@@H]4CCCC[C@H](NC(=O)C45CC(C(F)(F)F)(C4)C5)C(=O)N3C[C@@H]21 [Example 119] | < 100
51 | CC1(C)[C@@H]2[C@H]3C(=O)N[C@H](C#N)C[C@@H]4C(=O)NC[C@@H]4CCCC[C@H](NC(=O)c4ccc(Cl)c(Cl)c4)C(=O)N3C[C@@H]21 [Example 120] | < 100
52 | CC(C)(C(=O)N[C@H]1CCCC[C@H]2CNC(=O)[C@H]2C[C@@H](C#N)NC(=O)[C@@H]2[C@@H]3[C@H](CN2C1=O)C3(C)C)c1ccc(Cl)cc1 [Example 121] | < 100
53 | Cc1cc(C(=O)N[C@H]2CCCC[C@H]3CNC(=O)[C@H]3C[C@@H](C#N)NC(=O)[C@@H]3[C@@H]4[C@H](CN3C2=O)C4(C)C)no1 [Example 122] | < 100
